Experimental data published in patent US9611261B2, “Perfluorinated cyclopropyl fused 1,3-oxazin-2-amine compounds as beta-secretase inhibitors and methods of use” (AMGEN INC., priority 2013, dated 2017).

What was measured:
[1] = target: Beta Secretase enzyme (BACE) (Homo sapiens (Human), UniProt P56817); experiment: In vitro enzymatic BACE FRET assay; assay type: biochemical; conditions: read-out: BACE1 Enzyme assay IC50
Procedure: In Vitro Enzymatic BACE FRET (Fluorescence Resonance Energy Transfer) Assay (Enzyme Assay Data in the Example Table I)
The assay buffer used in this screen is 0.05 M acetate, pH 4.2, 10% DMSO final, 100 uM genapol (which is a nonionic detergent, below its Critical Micelle Concentration). […] This assay is effectively started by the addition of FRET substrate (50 nM) and the combination is incubated for one hour. The FRET assay is terminated with by addition of Tris buffer, which raises the pH to neutrality, and the fluorescence is determined. The FRET substrate is a peptide with commercially available fluorophore and quencher, on opposite sides of the BACE cleavage site.

[2] = target: Recombinant Cat D (Cathepsin D) (Homo sapiens (Human), UniProt P07339); experiment: In vitro enzymatic Cathepsin D (Cat D) FRET assay; assay type: biochemical; conditions: read-out: CatD IC50
Chain of Recombinant Cat D (Cathepsin D) (P07339 65-412, species assumed): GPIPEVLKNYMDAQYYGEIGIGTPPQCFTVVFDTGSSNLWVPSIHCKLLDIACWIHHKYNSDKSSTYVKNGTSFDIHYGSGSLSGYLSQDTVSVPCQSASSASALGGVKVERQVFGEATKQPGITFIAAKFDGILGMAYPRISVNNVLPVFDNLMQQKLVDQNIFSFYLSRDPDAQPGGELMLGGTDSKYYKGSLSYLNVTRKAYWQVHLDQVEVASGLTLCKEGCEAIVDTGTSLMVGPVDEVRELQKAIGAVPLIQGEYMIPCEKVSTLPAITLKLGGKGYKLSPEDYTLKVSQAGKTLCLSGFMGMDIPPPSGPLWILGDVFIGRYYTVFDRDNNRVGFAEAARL
Procedure: Recombinant Cat D was expressed in CHO cells. The assay buffer for CathepsinD is 0.05 M citrate pH 3.5, 10% DMSO final, 5 mM CHAPS. […] The assays are effectively started by the addition of different FRET substrates (20 nM for Cat D) and the combination is incubated for one hour. The FRET assay is terminated with by addition of Tris buffer, which raises the pH to neutrality, and the fluorescence is determined. The FRET substrate is a peptide with commercially available fluorophore and quencher, on opposite sides of the BACE cleavage site. […] Proteolytic cleavage of the FRET substrate releases quenching of fluorescence (Cat D excitation 500 nm and emission 580 nm).

[3] = system: Aβ in lumbar CSF; conditions: healthy volunteers, cited from earlier work

Chain of Beta Secretase enzyme (BACE) (P56817 46-501, species assumed): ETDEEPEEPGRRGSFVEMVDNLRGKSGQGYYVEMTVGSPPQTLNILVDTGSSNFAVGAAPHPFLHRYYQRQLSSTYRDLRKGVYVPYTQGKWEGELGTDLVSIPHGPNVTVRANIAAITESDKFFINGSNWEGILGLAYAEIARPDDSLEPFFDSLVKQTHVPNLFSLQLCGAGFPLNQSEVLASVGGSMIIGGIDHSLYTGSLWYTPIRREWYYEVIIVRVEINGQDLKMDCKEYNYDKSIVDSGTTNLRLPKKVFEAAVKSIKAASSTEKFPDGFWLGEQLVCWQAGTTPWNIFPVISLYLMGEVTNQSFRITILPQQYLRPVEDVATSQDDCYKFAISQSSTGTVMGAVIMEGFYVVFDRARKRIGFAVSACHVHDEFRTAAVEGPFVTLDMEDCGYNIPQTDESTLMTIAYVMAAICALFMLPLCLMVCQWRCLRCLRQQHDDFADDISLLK

Row | Compound | IC50 [1] | IC50 [2] | Aβ reductions in lumbar CSF ([3]; after oral dosing of 30 or 90 mg) | safety and tolerability ([3]; Ph I)
1 | N#Cc1ccc2c(c1)OCC[C@@H]2Nc1ccc(F)c([C@@]2(C(F)F)N=C(N)O[C@@H]3C[C@@H]32)c1 (mixture of isomers) [Example 383, (R)-4-((3-((1R,5S,6R)-3-amino-5-(difluoromethyl)-2-oxa-4-azabicyclo[4.1.0]hept-3-en-5-yl)-4-fluorophenyl)amino)chroman-7-carbonitrile and (S)-4-((3-((1R,5S,6R)-3-amino-5-(difluoromethyl)-2-oxa-4-azabicyclo[4.1.0]hept-3-en-5-yl)-4-fluorophenyl)amino)chroman-7-carbonitrile] | 0.968 µM | 206 µM | – | –
2 | N#Cc1cnc2c(c1)CCC[C@@H]2Nc1ccc(F)c([C@@]2(C(F)F)N=C(N)O[C@@H]3C[C@@H]32)c1 (mixture of isomers) [Example 403, (R)-8-((3-((1R,5S,6R)-3-amino-5-(difluoromethyl)-2-oxa-4-azabicyclo[4.1.0]hept-3-en-5-yl)-4-fluorophenyl)amino)-5,6,7,8-tetrahydroquinoline-3-carbonitrile and (S)-8-((3-((1R,5S,6R)-3-amino-5-(difluoromethyl)-2-oxa-4-azabicyclo[4.1.0]hept-3-en-5-yl)-4-fluorophenyl)amino)-5,6,7,8-tetrahydroquinoline-3-carbonitrile] | 2.85 µM | 469 µM | – | –
3 | C#CCOc1cnc(C(=O)Nc2cc(F)c(Cl)c([C@]3(CF)N=C(N)O[C@H]4C[C@H]43)c2)cn1 (racemic) [Example 140, N-(3-((1R/S,5S/R,6R/S)-3-amino-5-(fluoromethyl)-2-oxa-4-azabicyclo[4.1.0]hept-3-en-5-yl)-4-chloro-5-fluorophenyl)-5-(prop-2-yn-1-yloxy)pyrazine-2-carboxamide] | 0.006 µM | 86.9 µM | – | –
4 | NC1=N[C@@](c2cc(NC(=O)c3cnc(Cl)cn3)ccc2F)(C(F)F)[C@H]2C[C@H]2O1 [Example 261, N-(3-((1R,5S,6R)-3-amino-5-(difluoromethyl)-2-oxa-4-azabicyclo[4.1.0]hept-3-en-5-yl)-4-fluorophenyl)-5-chloropyrazine-2-carboxamide] | 0.037 µM | 444 µM | – | –
5 | COc1cc(Cl)cnc1C(=O)Nc1ccc(Cl)c([C@@]2(CF)N=C(N)O[C@@H]3C[C@@H]32)c1 [Example 297, N-(3-((1R,5S,6R)-3-amino-5-(fluoromethyl)-2-oxa-4-azabicyclo[4.1.0]hept-3-en-5-yl)-4-chlorophenyl)-5-chloro-3-methoxypicolinamide] | – | 835 µM | – | –
6 | C[C@@]1(c2cc(NC(=O)c3ccc(Cl)cn3)cnc2F)N=C(N)O[C@H]2C[C@H]21 [Example 333] | 0.13 µM | 816 µM | – | –
7 | COc1cnc2c(Nc3cc(Cl)c(F)c([C@@]4(CF)N=C(N)O[C@@H]5C[C@@H]54)c3)nccc2n1 [Example 356, (1R,5S,6R)-5-(3-chloro-2-fluoro-5-((2-methoxypyrido[3,4-b]pyrazin-5-yl)amino)phenyl)-5-(fluoromethyl)-2-oxa-4-azabicyclo[4.1.0]hept-3-en-3-amine] | 0.0659 µM | 725 µM | – | –
8 | N#Cc1cnc2c(c1)CC[C@@H]2Nc1ccc(F)c([C@@]2(C(F)F)N=C(N)O[C@@H]3C[C@@H]32)c1 [Example 404] | 0.291 µM | – | – | –
9 | C[C@@]1(c2cc(-c3cncnc3)c(F)cc2F)CCSC(N)=N1 [LY2811376, (S)-4-(2,4-difluoro-5-pyrimidin-5-yl-phenyl)-4-methyl-5,6-dihydro-4H-[1,3]thiazin-2-ylamine] | – | – | Prominent and long-lasting Aβ reductions | safe and well tolerated
